We go through 1 molecule from paper PMC5584945, “Evaluation of robenidine analog NCL195 as a novel broad-spectrum antibacterial agent” (PLoS ONE, 2017).

This assay has as its system S. pneumoniae D39. The assay can be described thus: TEM morphometric analysis of cell membrane. The assay is classed as cell-based, Streptococcus pneumoniae. The following applies: 16 μg/ml, 6 h exposure. As to the method:
Morphological appearance and morphometric analysis of the cell membrane of S. pneumoniae D39 after exposure to either 1 μg/ml, 4 μg/ml or 16 μg/ml of NCL812 was determined using TEM, as described in S1 File (Supplementary Methods). For S. aureus ATCC 29213, macromolecular (DNA, RNA, protein, cell wall, and lipid) synthesis inhibition studies were performed using concentrations of NCL812 that were equivalent to 0, 0.25, 0.5, 1, 2, 4 or 8-fold the MIC value (4 μg/ml), as detailed in S1 File (Supplementary Methods).
Effect of NCL812 on S. pneumoniae D39 cell membrane ultra-structure. Morphological appearance and morphometric analysis of the cell membrane of S. pneumoniae D39 after exposure to either 1 µg/ml, 4 µg/ml or 16 µg/ml of NCL812 was determined using TEM. […] Cultures were then exposed to either 1 µg/ml, 4 µg/ml or 16 µg/ml of NCL812 and harvested at 6 or 12 h by centrifugation at […] for 20 min and washed twice in 50 ml PBS. Critical time points for TEM work were determined by analyzing trends in the growth curves produced from the kill kinetics studies. Samples were resuspended in PBS containing 20% glycerol and stored at -80°C until required. […]
Samples were fixed using modified protocols defined by a previous study examining cell wall ultrastructure of S. pneumoniae. […] Images were obtained at 130000× magnification and analyzed using analySIS (Olympus Soft Imaging Systems).

`Cl.N=C(NN=Cc1ccc(Cl)cc1)NN=Cc1ccc(Cl)cc1` [NCL812, 2,2'-bis[(4-chlorophenyl)methylene] carbonimidic dihydrazide hydrochloride]: the Periplasmic space width (untreated 3.91 ± 0.14 nm) was 4.54 ±0.096 nm. The same molecule came in with a Cell membrane thickness (untreated 4.35 ± 0.24 nm) of 6.43 ± 0.29 nm.
